Data from patent US10035791B2, “Bicyclic compound and pharmaceutical composition thereof for treating stroke and use thereof” (China Medical University, priority 2016, dated 2018).

Experiments:
[1] = tested on: NSCs; test: Proliferation index (PI) measurement of CFSE-labelled NSCs by flow cytometry; assay type: cell-based, mice; settings: 1 μM for 16 hours; control group 4.37, FIG. 11C
Experimental: To prepare the NSCs, after removal of meninges, subventricular zones (SVZ) of lateral ventricles from adult mice brain (4 week-of-age) are aseptically isolated and dissociated as previously described (J Cell Sci 2006; 119, 4467-4474). All steps are operated under sterile conditions. Then, neurosphere culture are prepared in neurobasal (NB) medium (Gibco BRL) supplemented with 2% of B27 (Gibco BRL), 2 mM of L-glutamine (PAN Biotech), 100 U/ml of penicillin/0.1 mg/L of streptomycin (Gibco BRL). For maintenance and expansion of the cultures, the NB/B27 is further supplemented with 2 μg/mL of heparin (Sigma), 20 ng/mL of FGF-2 (R&D Systems) and 20 ng/mL of EGF (R&D Systems). Neurosphere cultures are maintained at 37° C. in a humidified incubator with 5% CO2. For clonal/low density cultures, primary neurospheres grown at high density are dissociated into a single cell suspension and reseeded into 96-well plates at 100 cells per ml of media and the number of newly formed neurospheres is counted after 7 days. In addition, the Bmi-1 expressions, SOX2 expressions, Nestin expressions, Musashi-1 expressions, BrdU expressions and ki-67 expressions of the newly formed neurospheres are determined by the immunofluorescence staining.
To analyze whet her he Compound 1 modulates the NSCs proliferation, this example examines the effect of the HIF-1α-Bmi-1 pathway on the self-renewal of the neurosphere. […]

[2] = tested on: ischemic rats; test: Locomotor activity test; assay type: in vivo, Sprague-Dawley (SD) rats; settings: 1 mg/kg, vs control group, FIGS. 19B to 19D
Excerpt: The ischemic rats are induced by an ischemia-reperfusion model to simulate transient focal cerebral ischemia in rats. Test animals are male Sprague-Dawley (SD) rats weighing 250-300 g. The rats are anesthetized with chloral hydrate (0.4 g/kg IP) and subjected to cerebral ischemia. The ischemia-reperfusion model is induced by ligations of bilateral common carotid arteries (CCAs) and a right middle cerebral artery (MCA). The bilateral CCAs are clamped with non-traumatic arterial clips, and the right MCA is ligated with an 10-0 nylon suture. After 90 minutes ischemia, the suture on the MCA and the arterial clips on CCAs are removed to allow reperfusion. Core body temperature is monitored with a thermistor probe (Hewlett-Packard Model 21090A probe, Hewlett-Packard Company, Andover, Mass.), and maintained at 37° C. with a heating pad during anesthesia. […]
The locomotor activity test is measured for about 2 hours using VersaMax Animal Activity Monitoring System (Accuscan Instruments), which contains 16 horizontal infrared sensors and 8 vertical infrared sensors. The vertical sensors are situated 10 cm above the chamber floor and the locomotor activity is quantified by a number of a beam broken by the rat's movement in the chamber. Three vertical-movement parameters are measured: (i) vertical activity (ii) vertical time (iii) number of vertical movements by the manufacturer's instruction.

[3] = tested on: Bmi-1; test: Bmi-1 expressions in the PCCs with hypoxic treatment, Western blot; assay type: cell-based, C57BL/6 mice
Experimental: Test cells are primary cortical cultures (PCCs) in this example. The PCCs are prepared from cerebral cortexes of gestation day 17 embryos from C57BL/6 mice as described previously (Cell Death Differ 2008; 15: 143-151). The PCCs are maintained under serum-free conditions in neurobasal medium (Invitrogen), supplemented with B-27 supplement (2%; invitrogen), glutamine (0.5 mM; Sigma Aldrich), glutamate ([…]; Sigma Aldrich), penicillin (100 U/ml) and streptomycin ([…]; Invitrogen). At 4 days in vitro, half of the medium is removed and replaced with fresh medium without glutamate. The cultures are maintained in a humidified incubator at 37° C. with 5% CO2. At 7 days in vitro, the PCCs are used for experimentation.
The relationship between the HIF-1α activation and the Bmi-1 expressions is further analyzed by the Western blot analysis in this example. […] One group of the PCCs is transfected with LV-Bmi-1 to transient express the Bmi-1. Another group of the PCCs is treated with 1 μM of 2-ME2 for 16 hours and then transfected with the LV-Bmi-1. The other group of the PCCs is transfected with LV-GFP as the control group. In FIG. 6B, the PCCs transfected with the LV-Bmi-1 overexpress the Bmi-1. However, the overexpressions of the Bmi-1 are not affected by the pretreatment of the PCCs with 2-ME2. […]

## COC(=O)C1=CO[C@@H](O)[C@@H]2C(COC(=O)[C@@H](N)Cc3ccccc3)=CC[C@H]12 [Compound 1]
[1]
  proliferation index (PI) of the NSCs: 6.77
[2]
  locomotor activity (vertical activity, vertical time, number of vertical movements): significant improvement

## COc1cc2c(cc1O)CC[C@@H]1[C@@H]2CC[C@]2(C)[C@@H](O)CC[C@@H]12 [Compound 2-ME2, 2-Methoxyestradiol, reference compound]
[3]; 1 μM 2-ME2 for 16 hours before transfection, FIG. 6B
  overexpressions of the Bmi-1 in PCCs transfected with the LV-Bmi-1: not affected
[3]; 1 μM 2-ME2 for 16 hours, hypoxic treatment, FIG. 6C
  Bmi-1 expressions of the PCCs: reduced
